Test results as given in article PMC10413841, “Exploration of Thiourea-Based Scaffolds for the Construction of Bacterial Ureases Inhibitors” (ACS Omega, 2023).
Several values for one entry are separate records, joined by “and”; a condition that tells them apart may be missing. Identical values can stand only once. Like-named read-outs stand apart in the source and are kept apart here.

What was measured:
[1] = molecular target: T1, native S. pasteurii CCM 2056 urease (Sporosarcina pasteurii, UniProt P41020); assay: Inhibition of purified native urease, indophenol (Berthelot) ammonia assay; type: biochemical; settings: for Ki: purified native enzyme, EI dissociation constant from Lineweaver-Burke plots, urea up to 30 mM, 3 mM phosphate buffer; for type (mode) of inhibition / α quantifier between ESI dissociation constant Ki* and EI dissociation constant Ki: purified S. pasteurii urease
T1 construct: The S. pasteurii CCM 2056 cells were used as the source of a native enzyme; endogenous in cells; host or cells: S. pasteurii CCM 2056 culture; endogenous enzyme purified in house from the sonicated cell extract by five-step chromatography
Description: The kinetic properties of the compounds as potential urease inhibitors were evaluated against native enzyme purified from S. pasteurii CCM 2056 culture. Residual enzyme activity was expressed as ammonia release from urea followed quantitively using the Berthelot reaction. All of the studied structures were reversibly inhibitory, with dissociation constants ranging from submicromolar to moderate micromolar concentrations (Table 1). The α quantifier between the enzyme-substrate-inhibitor complex (ESI) dissociation constant Ki* and the EI dissociation constant Ki [drawing 1] was calculated to determine the influence of substrate binding on the stability of the EI complex. […] For modeled compounds 19, 16, and 29, the values of α were 152.01, 38.04, and 14.52, respectively. […] For comparison, the α value of compound 52 was 1.37.
The S. pasteurii CCM 2056 cells were used as the source of a native enzyme. The culture medium was made of 20 g/L yeast extract. One day after the inoculation, the medium was further supplemented with 1 mM NiCl2 and 1% urea. After 2 more days of growth, the cells were centrifuged and disintegrated via sonication. Enzyme purification from the cell extract was conducted using a five-step chromatographic method as previously reported.[50]
Inhibition of the purified urease was measured using the indophenol assay for ammonia concentration.[65] The kinetic assays in 3 mM phosphate buffer contained the purified enzyme, studied thiourea analogues, and a range of urea concentrations up to saturating 30 mM. Total progress curves were analyzed with the addition of the enzyme at the reaction start. Assays were terminated with the sequential addition of 100 μL of M1 ([…] sodium nitroprusside, 0.53 M phenol) and M2 (0.625 M sodium hydroxide, 47.1 mM sodium hypochlorite) solution to 50 μL of reaction mixture sample. After 15 min of color development, absorbance at 650 nm was measured. […] In order to verify the inhibition mode as well as calculate the dissociation constant for EI complex, Lineweaver–Burke curves were plotted (1/v = f(1/[S])). For noncompetitive or mixed inhibition mode, Ki was calculated from plots of the LB curves slope as a function of inhibitor concentration.

[2] = tested on: live cells of S. pasteurii CCM 2056; assay: Whole-cell ureolysis: ammonia release from urea in live cells; type: cell-based, Sporosarcina pasteurii; settings: for IC50: Sporosarcina pasteurii, CCM2056
[3] = tested on: live cells of P. mirabilis PCM 543; assay: as above; type: cell-based, Proteus mirabilis; settings: urea hydrolysis in live cells, 30 mM urea, 10 mM PBS, read-out: IC50 [μM] (± SD) P. mirabilis cells
Description: Proteus mirabilis PCM 543 was cultured as described for S. pasteurii except for nickel ions—0.3 mM NiCl2 was used in the growth medium. Cells harvested by centrifugation were resuspended in 10 mM PBS and used for urease activity measurements. Assays were conducted in 10 mM PBS containing 30 mM urea and different concentrations of urease inhibitors and ammonia quantified by indophenol assay.

[4] = urea hydrolysis in live cells, 30 mM urea, 10 mM PBS, read-out: IC50 [μM] (± SD) S. pasteurii cells

T1 sequence (P41022 whole entry): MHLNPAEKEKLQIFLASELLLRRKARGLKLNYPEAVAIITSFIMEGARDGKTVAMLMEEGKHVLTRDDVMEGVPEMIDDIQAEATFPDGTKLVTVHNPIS
T1 sequence (P41021 whole entry, further chain): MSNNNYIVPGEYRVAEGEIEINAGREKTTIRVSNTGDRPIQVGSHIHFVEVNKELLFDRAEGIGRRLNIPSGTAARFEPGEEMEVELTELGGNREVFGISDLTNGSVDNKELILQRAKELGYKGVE
T1 sequence (P41020 whole entry): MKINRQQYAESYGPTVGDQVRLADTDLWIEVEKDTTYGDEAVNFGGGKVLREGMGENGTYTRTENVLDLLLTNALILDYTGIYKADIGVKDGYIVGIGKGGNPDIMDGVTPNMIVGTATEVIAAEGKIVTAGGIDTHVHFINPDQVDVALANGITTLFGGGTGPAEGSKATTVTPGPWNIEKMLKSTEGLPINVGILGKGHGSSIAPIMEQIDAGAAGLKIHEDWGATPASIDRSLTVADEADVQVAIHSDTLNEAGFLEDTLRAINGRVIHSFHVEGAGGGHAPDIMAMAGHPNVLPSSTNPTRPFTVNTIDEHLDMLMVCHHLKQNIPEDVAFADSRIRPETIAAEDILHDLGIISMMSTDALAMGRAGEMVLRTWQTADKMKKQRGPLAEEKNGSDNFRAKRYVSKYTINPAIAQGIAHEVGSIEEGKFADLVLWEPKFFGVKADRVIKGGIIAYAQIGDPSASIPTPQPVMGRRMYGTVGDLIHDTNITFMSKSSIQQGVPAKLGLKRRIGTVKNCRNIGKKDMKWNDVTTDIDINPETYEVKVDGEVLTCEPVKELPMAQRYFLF

Row | SMILES | Ki ([1]; read-out: Ki [μM] (± SD)) | IC50 [2, 4] [µM] | IC50 ([3]; Proteus mirabilis) [µM] | also measured
1 | SC1=NC(c2ccccc2)=CC(c2ccccc2)N1 (stereo not drawn) [Compound 37, 4,6-Diphenyl-3,4-dihydropyrimidine-2(1H)-thione] | 36.2 ± 5.2 µM | – | – | –
2 | COc1ccc(C(/C=C/c2ccccc2)=N/NC(N)=S)c(OC)c1 [Compound 26, (E)-2-((E)-1-(2,4-Dimethoxyphenyl)-3-phenylallylidene)hydrazine-1-carbothioamide] | 3.02 ± 0.23 µM | 134 ± 11.4 | – | type (mode) of inhibition [1]: noncompetitive
3 | C/C(=N\NC(N)=S)c1ccccc1 [Compound 19, (E)-2-(1-Phenylethylidene)hydrazine-1-carbothioamide] | 0.39 µM and 0.391 µM | 194 ± 12.5 | 568 ± 47.7 | α quantifier between ESI dissociation constant Ki* and EI dissociation constant Ki [1]: 152.01
4 | NC(=S)N/N=C(\C=C\c1ccc(Cl)cc1)c1ccccc1 [Compound 23, (E)-2-((E)-3-(4-Chlorophenyl)-1-phenylallylidene)hydrazine-1-carbothioamide] | 14.9 ± 2.01 µM | 58.4 ± 3.21 | 430 ± 26.9 | –
5 | NC(=S)N1N=C(c2ccccc2)CC1c1ccc(Cl)cc1 (stereo not drawn) [Compound 34, 5-(4-Chlorophenyl)-3-phenyl-4,5-dihydro-1H-pyrazole-1-carbothioamide] | 30.5 ± 2.84 µM | – | – | –
6 | NC(=S)N1N=C(c2ccccc2)CC1c1ccccc1 (stereo not drawn) [Compound 32, 3,5-Diphenyl-4,5-dihydro-1H-pyrazole-1-carbothioamide] | 71.7 ± 8.26 µM | – | – | –
7 | NNC(=S)N/N=C(\C=C\c1ccc(Cl)cc1)c1ccccc1 [Compound 31, N′-((1E,2E)-3-(4-Chlorophenyl)-1-phenylallylidene)hydrazinecarbothiohydrazide] | 12.8 ± 1.54 µM | 132 ± 6.9 | – | –
8 | NC(=S)N/N=C(\C=C\c1ccccc1)c1ccccc1 [Compound 21, (E)-2-((E)-1,3-Diphenylallylidene)hydrazine-1-carbothioamide] | 6.13 ± 0.714 µM | 102 ± 8.4 | 519 ± 27.6 | type (mode) of inhibition [1]: noncompetitive
9 | Cc1ccc(/C=C/C(=N\NC(N)=S)c2ccccc2)cc1 [Compound 22, (E)-2-((E)-1-Phenyl-3-(p-tolyl)allylidene)hydrazine-1-carbothioamide] | 5.18 ± 0.691 µM | 764 ± 50.3 | 1110 ± 126 | –
10 | NC(=S)N/N=C/c1ccccc1 [Compound 15, (E)-2-Benzylidenehydrazine-1-carbothioamide] | 3.57 ± 0.182 µM | 3.83 ± 0.282 | 347 ± 23.1 | IC50 ([2]; Gram-positive S. pasteurii cells, ureolysis inhibition, read-out: IC50 in S. pasteurii cells (unit inferred)): 3.8 ± 0.2 µM
11 | S=C(NCc1ccccc1)Nc1nc(-c2ccccc2)cs1 [Compound 49, 1-Benzyl-3-(4-phenylthiazol-2-yl)thiourea] | 46 ± 3.71 µM | 476 ± 26.1 | 554 ± 18.8 | –
12 | Cc1ccc(/C=N/NC(=S)NN)cc1 [Compound 28, (E)-N′-(4-Methylbenzylidene)hydrazinecarbothiohydrazide] | 13.5 ± 3.16 µM | 118 ± 7.7 | 664 ± 35.2 | –
13 | COc1ccc(/C=N/NC(N)=S)cc1OC [Compound 18, (E)-2-(3,4-Dimethoxybenzylidene)hydrazine-1-carbothioamide] | 37.5 ± 4.79 µM | – | – | –
14 | S=C1NC(c2ccccc2)=CC(c2ccc(Cl)cc2)N1 (stereo not drawn) [Compound 39, 4-(4-Chlorophenyl)-6-phenyl-3,4-dihydropyrimidine-2(1H)-thione] | 30.2 ± 4.23 µM | – | – | –
15 | COc1ccc(-c2csc(NC(=S)NCc3ccccc3)n2)c(OC)c1 [Compound 51, 1-Benzyl-3-(4-(2,4-dimethoxyphenyl)thiazol-2-yl)thiourea] | – | 326 ± 18.7 | 509 ± 31.6 | Ki ([1]; Ki [μM] (± SD)): 22.2 ± 2.66 µM
16 | COc1ccc(C2=CC(c3ccccc3)NC(=S)N2)c(OC)c1 (stereo not drawn) [Compound 41, 6-(2,4-Dimethoxyphenyl)-4-phenyl-3,4-dihydropyrimidine-2(1H)-thione] | 47.7 ± 6.31 µM | – | – | –
17 | Oc1ccc(-c2csc(NC(=S)NCc3ccccc3)n2)cc1 [Compound 52, 1-Benzyl-3-(4-(4-hydroxyphenyl)thiazol-2-yl)thiourea] | 2.76 µM | 76.3 ± 4.5 | 304 ± 14 | type (mode) of inhibition [1]: noncompetitive inhibition; α quantifier between ESI dissociation constant Ki* and EI dissociation constant Ki [1]: 1.37; fold change of inhibitory activity (IC50) against S. pasteurii cells compared to nonhydroxylated analogue 49 ([2]; 52 versus 49): over 6 fold; IC50 [3]: 304 ± 13.9 µM
18 | Cc1ccc(C2C=C(c3ccccc3)NC(=S)N2)cc1 (stereo not drawn) [Compound 38, 6-Phenyl-4-(p-tolyl)-3,4-dihydropyrimidine-2(1H)-thione] | 27.4 ± 3.47 µM | – | – | –
19 | C/C(=N\NC(N)=S)c1ccc(O)cc1 [Compound 20, (E)-2-(1-(4-Hydroxyphenyl)ethylidene)hydrazine-1-carbothioamide] | 33.4 ± 2.61 µM | 87.6 ± 9.07 | 513 ± 33.9 | type (mode) of inhibition [1]: noncompetitive
20 | S=C(NCc1ccccc1)Nc1nc(-c2ccc(Br)cc2)cs1 [Compound 53, 1-Benzyl-3-(4-(4-bromophenyl)thiazol-2-yl)thiourea] | 10.7 ± 0.79 µM | 416 ± 32.4 | 638 ± 48.2 | –
21 | NC(=S)N/N=C(\C=C\c1ccccc1)c1ccc(O)cc1 [Compound 25, (E)-2-((E)-1-(4-Hydroxyphenyl)-3-phenylallylidene)hydrazine-1-carbothioamide] | 5.4 ± 0.327 µM | 149 ± 8.7 | 763 ± 41.1 | type (mode) of inhibition [1]: noncompetitive
22 | NNC(=S)N/N=C/c1ccccc1 [Compound 27, (E)-N′-Benzylidenehydrazinecarbothiohydrazide] | 8.31 ± 0.438 µM | 11.6 ± 0.65 | 544 ± 17.9 | –
23 | NNC(=S)N/N=C(\C=C\c1ccccc1)c1ccccc1 [Compound 29, N′-((1E,2E)-1,3-Diphenylallylidene)hydrazinecarbothiohydrazide] | 2.24 µM | – | – | α quantifier between ESI dissociation constant Ki* and EI dissociation constant Ki [1]: 14.52
24 | NC(=S)N1N=C(c2ccccc2)CC1c1ccc(F)cc1 (stereo not drawn) [Compound 35, 5-(4-Fluorophenyl)-3-phenyl-4,5-dihydro-1H-pyrazole-1-carbothioamide] | 46.5 ± 6.3 µM | – | – | –
25 | COc1ccc(-c2csc(NC(=S)NCc3ccccc3)n2)cc1 [Compound 50, 1-Benzyl-3-(4-(4-methoxyphenyl)thiazol-2-yl)thiourea] | 41.4 ± 3.73 µM | – | – | –
26 | Cc1ccc(/C=C/C(=N\NC(=S)NN)c2ccccc2)cc1 [Compound 30, N′-((1E,2E)-1-Phenyl-3-(p-tolyl)allylidene)hydrazinecarbothiohydrazide] | 59.5 ± 4.4 µM | 553 ± 27.8 | – | –
27 | Fc1ccc(C2C=C(c3ccccc3)NC(=S)N2)cc1 (stereo not drawn) [Compound 40, 4-(4-Fluorophenyl)-6-phenyl-3,4-dihydropyrimidine-2(1H)-thione] | 5.55 ± 0.873 µM | – | – | –
28 | COc1ccc(C2=NN(C(N)=S)C(c3ccccc3)C2)c(OC)c1 (stereo not drawn) [Compound 36, 3-(2,4-Dimethoxyphenyl)-5-phenyl-4,5-dihydro-1H-pyrazole-1-carbothioamide] | 57.7 ± 4.42 µM | – | – | –
29 | Cc1ccc(C2CC(c3ccccc3)=NN2C(N)=S)cc1 (stereo not drawn) [Compound 33, 3-Phenyl-5-(p-tolyl)-4,5-dihydro-1H-pyrazole-1-carbothioamide] | 87.1 ± 9.29 µM | – | – | –
